# Columns and labels:
# [1] = molecular target: T1, AtGTR2 (Arabidopsis thaliana, UniProt Q9LV10); experiment: Uptake of C14-labeled pOHBG in AtGTR2 expressing oocytes in presence of excess competitor; type: cell-based; conditions: 50× excess unlabeled competitor, AtGTR2, pH 5
# T1 construct: expressed in transfected cells; host or cells: Xenopus oocytes injected with in vitro transcribed cRNA (vector pNB1u)
# T1 sequence (Q9LV10 1-616): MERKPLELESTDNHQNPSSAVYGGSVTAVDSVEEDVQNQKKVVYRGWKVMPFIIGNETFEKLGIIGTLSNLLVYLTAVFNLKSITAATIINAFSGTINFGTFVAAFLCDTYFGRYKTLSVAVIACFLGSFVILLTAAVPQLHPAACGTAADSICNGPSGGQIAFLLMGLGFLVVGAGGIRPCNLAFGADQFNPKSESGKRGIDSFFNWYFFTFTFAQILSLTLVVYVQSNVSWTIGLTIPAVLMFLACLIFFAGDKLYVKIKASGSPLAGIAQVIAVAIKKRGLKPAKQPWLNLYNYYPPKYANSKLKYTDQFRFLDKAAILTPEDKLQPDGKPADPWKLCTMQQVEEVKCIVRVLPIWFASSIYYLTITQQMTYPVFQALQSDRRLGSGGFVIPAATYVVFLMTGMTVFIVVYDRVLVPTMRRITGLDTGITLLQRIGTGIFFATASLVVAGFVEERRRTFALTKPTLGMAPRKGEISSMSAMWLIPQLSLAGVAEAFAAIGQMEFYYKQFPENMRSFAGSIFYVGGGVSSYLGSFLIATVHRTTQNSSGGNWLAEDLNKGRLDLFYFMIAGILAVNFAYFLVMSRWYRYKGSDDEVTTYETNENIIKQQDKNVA
# Description: FIG. 3: Biochemical analysis of AtGTR1 and 2 mediated GSL transport in Xenopus oocytes. A and B, pH dependence of AtGTR-mediated GSL transport. A, AtGTR2 mediated 4-MTB uptake measured by LC-MS analysis of oocyte extracts, n=3 oocytes. B, AtGTR1 currents induced by 1 mM 4-MTB were measured at different membrane potentials at pH 5 ([…]), pH 6 (♦), and pH 7 (▴). Currents were normalized to the current induced at pH 5 at −60 mV, error bars are SD, n=4 oocytes. C and D, kinetic analysis of AtGTR-mediated glucosinolate transport. […]
# The substrate specificity investigations were extended to include substrates previously identified for the NRT/PTR transporter family namely di- and tripeptides and nitrate. […] However, perfusing with 1 mM NO3^− did result in currents but these amounted only to 1/10th of currents measured when perfusing with 100 μM 4-MTB (FIG. 3F). […]
# For assays with radiolabeled substrates, single oocytes were ruptured in 100 μl 10% SDS in 4 ml scintillation vials by shaking for 20-30 minutes. 2.5 ml EcoScint™ scintillation fluid (National Diagnostics) was added, and imported compounds quantified by scintillation counting. For assays with unlabeled substrates, oocyte extracts were analysed by LC-MS. Oocytes were analyzed in batches of 5 oocytes per repetition. […]
# [2] = molecular target: T1, AtGTR2; experiment: Glucosinolate uptake by AtGTR2 expressing oocytes, LC-MS analysis of oocyte extracts; type: cell-based; conditions: data not shown
structure (smiles),measurement,setting,value
"CSCCCC/C(=N/OS(=O)(=O)O)S[C@@H]1O[C@H](CO)[C@@H](O)[C@H](O)[C@H]1O [4-MTB, 4-methylthiobutyl glucosinolate]",effect on uptake of 40 μM C14-labeled pOHBG,[1],reduced the uptake of pOHBG to background levels
same,uptake by AtGTR2 measured by LC-MS analysis of oocyte extracts,[2],took up

# From patent publication US20140137294A1, “GLUCOSINOLATE TRANSPORTER PROTEIN AND USES THEREOF” (UNIVERSITY OF COPENHAGEN, priority 2010, published 2014)
